Measured values reported in publication PMC9952496, “A Novel Strategy for the Design of Aurein 1.2 Analogs with Enhanced Bioactivities by Conjunction of Cell-Penetrating Regions” (Antibiotics, 2023).
Read-outs that look alike come from different tables or passages of the source. Residues, ends and D or L forms follow the SMILES beside them.

Columns and labels:
E. coli (NCTC 8739) = assay type: cell-based; conditions: for MIC: NCTC 8739; for MBC: NCTC 8739, 20 h
Protocol: (§1) The antimicrobial activity evaluation was conducted by use of MIC and MBC assays, using three Gram-positive bacteria and three Gram-negative bacteria. The peptides were dissolved in dimethyl sulfoxide (DMSO) for a final concentration series from 1 to 128 µM; 20 µmol of norfloxacin was applied as the positive control, and one µL of DMSO was used as the negative control. The bacteria were inoculated in the corresponding cultural media overnight and subcultured to the desired OD value (OD = 0.23 for Gram-positive bacteria, OD = 0.4 for Gram-negative bacteria corresponding to 5 × 10^5 CFU/mL); 20 mL of culture broth and 100 µL of subcultured bacteria were mixed before being loaded onto the plate, and 1 µL of the peptide cocktail was mixed with 99 µL of diluted bacteria in 96 wells plates and then was incubated for 20 to 24 h at 37 °C. Afterward, the OD value (λ = 550 nm) of each well was detected using a Synergy HT plate reader (Biotech, Minneapolis, MN, USA). The MIC value was the lowest concentration without bacterial growth visually. Subsequently, 10 µL of the solution in each clear well was loaded onto an agar plate and cultured for 20 h. The lowest concentration without colony growth was regarded as the MBC.

E. faecalis (NCTC 12697) = assay type: cell-based; conditions: for MIC: NCTC 12697; for MBC: NCTC 12697, 20 h
Protocol: as §1

[1] = test system: K. pneumoniae (ATCC 43816); assay type: cell-based; conditions: for MIC: ATCC 43816; for MBC: ATCC 43816, 20 h
Protocol: as §1

MRSA (ATCC 12493) = assay type: cell-based; conditions: for MIC: ATCC 12493; for MBC: ATCC 12493, 20 h
Protocol: as §1

[2] = test system: P. aeruginosa (ATCC 9027); assay type: cell-based; conditions: for MIC: ATCC 9027; for MBC: ATCC 9027, 20 h
Protocol: as §1

[3] = test system: S. aureus (ATCC CRM 6538); assay type: cell-based; conditions: for MIC: ATCC CRM 6538; for MBC: ATCC CRM 6538, 20 h
Protocol: as §1

[4] = test system: MCF-7 breast cancer cell line; assay type: cell-based, human
Protocol: (§2) The MTT test measures the anti-proliferation of the peptide by measuring MTT conversion by live cells into a formazan that cannot be dissolved in water. In this section, three cancer cell lines: human non-small-cell lung cancer cell line, NCI-H838 (ATCC-CRL-5844); human glioblastoma astrocytoma cell line, U251MG (ECACC-09063001) and human breast cancer cell line, MCF-7 (ATCC-HTB-22), were selected for the anti-proliferation study. H838 cells were cultured in Roswell Park Memorial Institute (RPMI)-1640 medium (Life Technologies, Paisley, UK) mixed with 10% (v/v) fetal bovine serum (FBS) and 1% penicillin-streptomycin (Gibco, 10,000 U/mL). U251MG and MCF-7 cells were cultured in Dulbecco’s Modified Eagle medium (DMEM) (Life Technologies, Carlsbad, CA) mixed with 10% (v/v) FBS and 1% penicillin–streptomycin (Gibco, 10,000 U/mL). The cancer cells were first seeded into the 96-well plates at a cell density of 8000 per well for 20–24 h at 37 °C. Then, the cells were starved by switching the FBS containing complete growth medium to FBS lacking serum-free medium for 4 h. Peptides were dissolved to a series of final concentrations from 10^−9 to 10^−4 M in ddH2O. After starvation, 1 μL of the peptide with 99 μL of the serum-free medium was added to the plate and then cultured for 20–24 h.; 10 µL of MTT (3-(4,5-dimethylthiazol-2-yl)-2,5-diphenyltetrazolium bromide, 5 mg/mL, Sigma, UK) were loaded into each well in the dark and incubated at 37 °C. Subsequently, the liquid in each well was removed completely before […] of DMSO was added to each well to dissolve the formazan. The plate was read at 570 nm using a Synergy HT plate reader.

[5] = test system: NCI-H838 non-small-cell lung cancer cell line; assay type: cell-based, human
Protocol: as §2

[6] = test system: U251MG glioblastoma astrocytoma cell line; assay type: cell-based, human
Protocol: as §2

horse erythrocytes [7] = test: Haemolytic activity evaluation; conditions: at the peptide's MIC value for E. coli; horse erythrocytes in PBS, 2 h at 37 °C, absorbance 490 nm, Triton X-100 positive control, n = 9; listed as KIL-1
Protocol: (§3) The hemolytic activity of the peptides on mammalian erythrocytes was examined using 2% defibrinated horse blood (TCS Biosciences Ltd., Buckinghamshire, UK). Firstly, the defibrinated horse blood was washed; 2 mL of horse blood was added into a 50 mL tube; then, 30 mL of sterilized PBS was added dropwise into the tube, and the tube was mixed in a shaking bed and then centrifuged at 930× g for 10 min. The procedure was repeated until the supernatant of the centrifuge tube was clear. Afterward, the blood cell pellet was dispersed to make a 4% suspension (v/v) by adding 50 mL of sterilized PBS. Peptides were dissolved using PBS to achieve final concentrations of 1–128 μM and then mixed with the blood cell suspensions in 1.5-mL tubes. The blood cell suspensions treated with 0.1% Triton X-100 and PBS were used as positive controls and negative controls, respectively. Then the peptide-blood mixture was incubated at 37 °C degrees for 2 h in an incubator. After incubation, the tubes were centrifuged at 930× g for 10 min, and 100 µL of the supernatants were loaded into wells of the 96-well plates. The absorbance was obtained by Synergy HT plate reader at 490 nm. The hemolytic activity was calculated using the formula, hemolysis = (absorbance of experimental groups − absorbance of negative control))/(absorbance of positive control − absorbance of negative control) × 100%.

Gram-positive bacteria = test: MIC assay, summary over Gram-positive bacteria; assay type: cell-based; conditions: range over three Gram-positive bacteria
Protocol: as §1

horse erythrocytes [8] = conditions: red cells of horse, 2 h
Protocol: as §3

[9] = test system: Gram-negative bacteria biofilm; conditions: range over Gram-negative bacteria
Protocol: (§4) The minimum biofilm inhibition and minimum biofilm eradication concentrations were obtained by use of the MBIC and MBEC assays. The anti-biofilm activity of the peptides was evaluated by use of S. aureus (ATCC 6538), MRSA (NCTC 12493), E. faecalis (NCTC 12493), E. coli (ATCC CRM 8739), K. pneumoniae (ATCC43816), and P. aeruginosa (ATCC CRM 9027).
(§5) For the MBIC assay, the bacteria were cultured in tryptic soy broth (TSB) broth with 1% glucose for Gram-positive bacteria biofilm and Luria Bertani (LB) broth with 1% glucose for Gram-negative bacteria biofilm. Bacteria were inoculated, subcultured, and diluted in the same method described before. The peptides were prepared in a concentration of 1–128 µM; 1 µL of peptide and 99 µL of subcultured bacteria were mixed in 96 well plates and cultured at 37 °C with a shear force of 200 rpm in a humid environment for 20–24 h. Then, the plate was washed with 130 µL of PBS twice, and 130 µL of methanol was added to stabilize the biofilm overnight; then, the plate was dyed with 100 mL of 0.5% crystal violet for 15 min. The stained biofilm was then washed once more and allowed to dry overnight. The stain was dissolved in acetic acid at a 30% concentration, and it was shaken for 15 min to ensure homogeneity. A Synergy HT plate reader was then used to read the plate at 595 nm. […]

[10] = test system: Gram-positive bacteria biofilm; assay type: cell-based; conditions: range over Gram-positive bacteria
Protocol: as §4, §5

Compound | MIC (E. coli (NCTC 8739)) [µM] | MIC (E. faecalis (NCTC 12697)) [µM] | MIC [1] [µM] | MIC (MRSA (ATCC 12493)) [µM] | MIC [2] [µM] | MIC [3] [µM] | IC50 [4] [µM] | IC50 [5] [µM] | IC50 [6] [µM] | MBC (E. coli (NCTC 8739)) [µM] | MBC (E. faecalis (NCTC 12697)) [µM] | MBC [1] [µM] | MBC (MRSA (ATCC 12493)) [µM] | MBC [2] [µM] | MBC [3] | also measured
CC[C@H](C)[C@H](NC(=O)[C@H](CC(=O)O)NC(=O)[C@H](Cc1ccccc1)NC(=O)[C@H](CC(C)C)NC(=O)CN)C(=O)N[C@H](C(=O)N[C@@H](CCCCN)C(=O)N[C@@H](CCCCN)C(=O)N[C@@H](CC(C)C)C(=O)N[C@@H](C)C(=O)N[C@@H](CCC(=O)O)C(=O)N[C@@H](CO)C(=O)N[C@@H](Cc1ccccc1)C(N)=O)[C@@H](C)CC [KLA-1] (H-GLFDIIKKLAESF-NH2) | 8 | 32 | 32 | 16 | 64 | 16 | 17.6 ± 0.79 | 29.4 ± 0.22 | 34.1 ± 0.21 | 16 | 32 | 32 | 32 | 128 | 16 µM | Hemolysis (horse erythrocytes [7]): almost no hemolysis was detected
CC[C@H](C)[C@H](NC(=O)[C@H](CCCCN)NC(=O)[C@H](CCCCN)NC(=O)[C@@H](NC(=O)[C@@H](NC(=O)[C@H](CC(=O)O)NC(=O)[C@H](Cc1ccccc1)NC(=O)[C@H](CC(C)C)NC(=O)CN)[C@@H](C)CC)[C@@H](C)CC)C(=O)N[C@@H](C)C(=O)N[C@@H](CCC(=O)O)C(=O)N[C@@H](CO)C(=O)N[C@@H](Cc1ccccc1)C(N)=O [aurein 1.2] (H-GLFDIIKKIAESF-NH2) | 16 | 32 | 64 | 16 | 64 | 8 | 25.9 ± 0.79 | 26.9 | 38.4 | 16 | 32 | 64 | 16 | 128 | 8 µM | MICs against Gram-positive bacteria (Gram-positive bacteria): 8 to 32 µM; HC50 (horse erythrocytes [8]): around 30 μM; Hemolysis (horse erythrocytes [8]): 20.56%; concentration effective in prevention of biofilm formation (MBIC) [9]: 64 to 128 µM
CC[C@H](C)[C@H](NC(=O)[C@H](CC(=O)O)NC(=O)[C@H](Cc1ccccc1)NC(=O)[C@H](CC(C)C)NC(=O)CN)C(=O)N[C@H](C(=O)N[C@@H](CCCCN)C(=O)N[C@@H](CCCCN)C(=O)N[C@@H](CC(C)C)C(=O)N[C@@H](C)C(=O)N[C@@H](CCCCN)C(=O)N[C@@H](CC(C)C)C(=O)N[C@@H](C)C(=O)N[C@@H](CCC(=O)O)C(=O)N[C@@H](CO)C(=O)N[C@@H](Cc1ccccc1)C(N)=O)[C@@H](C)CC [KLA-2] (H-GLFDIIKKLAKLAESF-NH2) | 2 | 16 | 4 | 4 | 16 |  | 3.55 | 4.6 ± 0.12 | 5 ± 0.12 | 2 | 16 | 4 | 4 | 16 | 2/2 μM | MBIC [10]: 2 to 16 µM

More lines, main results first:

MIC (E. coli (NCTC 8739)) [µM] | MIC (E. faecalis (NCTC 12697)) [µM] | MIC [1] [µM] | MIC (MRSA (ATCC 12493)) [µM] | MIC [2] [µM] | MIC [3] [µM] | IC50 [4] [µM] | IC50 [5] [µM] | IC50 [6] [µM] | Compound | MBC (E. coli (NCTC 8739)) [µM] | MBC (E. faecalis (NCTC 12697)) [µM] | MBC [1] [µM] | MBC (MRSA (ATCC 12493)) [µM] | MBC [2] [µM] | MBC [3] | also measured
8 | 8 | >128 | 16 | 16 | 8 | 3 ± 0.76 | 3.5 ± 0.74 | 3.4 ± 0.71 | CC[C@H](C)[C@H](NC(=O)[C@H](CCCCN)NC(=O)[C@H](CCCCN)NC(=O)[C@@H](NC(=O)[C@@H](NC(=O)[C@H](CCCCN)NC(=O)[C@H](CCCCN)NC(=O)[C@@H](NC(=O)[C@@H](NC(=O)[C@H](CC(=O)O)NC(=O)[C@H](Cc1ccccc1)NC(=O)[C@H](CC(C)C)NC(=O)CN)[C@@H](C)CC)[C@@H](C)CC)[C@@H](C)CC)[C@@H](C)CC)C(=O)N[C@@H](C)C(=O)N[C@@H](CCC(=O)O)C(=O)N[C@@H](CO)C(=O)N[C@@H](Cc1ccccc1)C(N)=O [IK-1] (H-GLFDIIKKIIKKIAESF-NH2) | 8 | 16 | >128 | 16 | 32 | 8 µM | 
8 | >128 | 16 | >128 | 64 | >128 | 3.2 ± 0.87 | 3.7 ± 0.77 | 3.6 ± 0.18 | CC[C@H](C)[C@H](NC(=O)[C@H](CCCCN)NC(=O)[C@H](CCCCN)NC(=O)[C@@H](NC(=O)[C@@H](NC(=O)[C@H](CCCCN)NC(=O)[C@H](CCCCN)NC(=O)[C@@H](NC(=O)[C@@H](NC(=O)[C@H](CCCCN)NC(=O)[C@H](CCCCN)NC(=O)[C@@H](NC(=O)[C@@H](NC(=O)[C@H](CC(=O)O)NC(=O)[C@H](Cc1ccccc1)NC(=O)[C@H](CC(C)C)NC(=O)CN)[C@@H](C)CC)[C@@H](C)CC)[C@@H](C)CC)[C@@H](C)CC)[C@@H](C)CC)[C@@H](C)CC)C(=O)N[C@@H](C)C(=O)N[C@@H](CCC(=O)O)C(=O)N[C@@H](CO)C(=O)N[C@@H](Cc1ccccc1)C(N)=O [IK-2] (H-GLFDIIKKIIKKIIKKIAESF-NH2) | 8 | >128 | 16 | >128 | 128 | >128 µM | 
4 | 16 | 8 | 16 | 16 | 16 | 3.4 ± 0.71 | 2.99 | 3.3 ± 0.63 | CC[C@H](C)[C@H](NC(=O)[C@H](CCCCN)NC(=O)[C@H](CCCCN)NC(=O)[C@@H](NC(=O)[C@@H](NC(=O)[C@H](CCCCN)NC(=O)[C@H](CCCCN)NC(=O)[C@@H](NC(=O)[C@@H](NC(=O)[C@H](CCCCN)NC(=O)[C@H](CCCCN)NC(=O)[C@@H](NC(=O)[C@@H](NC(=O)[C@H](CC(=O)O)NC(=O)[C@H](Cc1ccccc1)NC(=O)[C@H](CC(C)C)NC(=O)CN)[C@@H](C)CC)[C@@H](C)CC)[C@@H](C)CC)[C@@H](C)CC)[C@@H](C)CC)[C@@H](C)CC)C(N)=O [IK-3] (H-GLFDIIKKIIKKIIKKI-NH2) | 4 | 32 | 8 | 32 | 16 | 16 µM | 
